Reference: patent publication US20260125675A1, “DOWNREGULATING TROLLS USING NOVEL ANTISENSE OLIGONUCLEOTIDES TO OVERCOME RESISTANCE TO CHEMOTHERAPY” (H. LEE MOFFITT CANCER CENTER AND RESEARCH INSTITUTE, INC., priority 2022, published 2026)

How the values were obtained:
Type in all cases: cell-based, human
Conditions in all cases: treated 72 hr
AKT = experiment: Western blot of phosphorylated and total AKT in drug-treated CAID cells
Method: (§1) 195. We were interested in determining the effect of treatment with adriamycin, docetaxel, or paclitaxel on the levels of TOLL-2 and TROLL-3. qRT-PCR was performed for TROLL-2 and TROLL-3 in CAID cells treated with the indicated drugs for 72 hr. Western blosts of the levels of phosphorylated and total AKT, and relative quantification were determined (FIG. 1). […] We next observed that the levels of TROLL-3 are higher in lung adenocarcinoma (LUAD) with EGFR mutations with EGFR mutations in 2 distinct cohorts of patients (the TCGA cohort and Moffitt cohort) (FIGS. 2 and 3). Next we looked at the association association between pAKT levels and resistance to treatment in a panel of LUAD cell lines. Western blot levels of phosphorylated and total AKT in the indicated cell lines. Red boxes denote cell lines where PAKT levels are higher in the cells resistant to the indicated inhibitors compared to the respective parental cells (FIG. 4). Such increase in pAKT levels is associated with the resistance to anti-cancer treatment. To see the effect of TROLL-2 or TROLL-3 downregulation of pAKT levels in LUAD cells, we prefromed western blosts of the lvels of phosphorylated and total AKT in parental and KRASi resistant or EGFRi resistant cells using untreated on siRNA knockdown of TROLL-2 or TROLL-3 (FIGS. 5 and 6). We observed that downregulation of TROLL-2 or TROLL-3 reduces pAKT levels in KRASi and EGFRi resistant LUAD cells. Next we identified antisense LNA GapmeRs targeting TROLL-2 and TROLL-3 (50 nM-2 experiments). We used […]-PCR (qRT-PCR) for TROLL-2 and TROLL-3 in CAID cells treated with the indicated Antisense LNA GapmeRs for 48 hr. The following reagents were purchased from Qiagen: negative control=LG00000002-DDB, TROLL-2 A=LG00807687-DDB. TROLL-2 B=LG00807688-DDB, TROLL-2 C=LG00807689-DDB. TROLL-2 D=LG00807691-DDB, TROLL-2 E=LG00807694-DDB, TROLL-3 A=LG00807697-DDB, TROLL-3 B=LG00807698-DDB, TROLL-3 C=LG00807699-DDB, TROLL-3 D=LG00807700-DDB, and TROLL-3 E=LG00807701-DDB (FIG. 7). […]

TROLL-3 = experiment: qRT-PCR for TROLL-3 in CAID cells treated with the indicated drugs
Method: as §1

TROLL-2 = experiment: qRT-PCR for TROLL-2 in CAID cells treated with the indicated drugs
Method: as §1

Compound	AKT pathway activation (phosphorylated and total AKT, western blot) (AKT)	levels of TROLL-3 (qRT-PCR) (TROLL-3)	levels of TROLL-2 (qRT-PCR) (TROLL-2)
COc1cccc2c1C(=O)c1c(O)c3c(c(O)c1C2=O)C[C@@](O)(C(=O)CO)C[C@@H]3O[C@H]1C[C@H](N)[C@H](O)[C@H](C)O1 [adriamycin]	activation of the AKT pathway	increases	increases
CC(=O)O[C@@]12CO[C@@H]1C[C@H](O)[C@@]1(C)C(=O)[C@H](O)C3=C(C)[C@@H](OC(=O)[C@H](O)[C@@H](NC(=O)OC(C)(C)C)c4ccccc4)C[C@@](O)([C@@H](OC(=O)c4ccccc4)[C@H]21)C3(C)C [docetaxel]	activation of the AKT pathway	increases	increases
CC(=O)O[C@H]1C(=O)[C@@]2(C)[C@H]([C@H](OC(=O)c3ccccc3)[C@]3(O)C[C@H](OC(=O)[C@H](O)[C@@H](NC(=O)c4ccccc4)c4ccccc4)C(C)=C1C3(C)C)[C@]1(OC(C)=O)CO[C@@H]1C[C@@H]2O [paclitaxel]	activation of the AKT pathway	increases	increases
